We go through seven compounds from patent US20230295171A1, “FUSED HETEROAROMATIC PYRROLIDINONES” (Calithera Biosciences, Inc., priority 2009, published 2023).

The structures appear in SMILES notation.

The target in this assay is SYK (Homo sapiens (Human), UniProt P43405). Kind of assay: SYK inhibition assay (phosphorylation of FAM-labeled SYK-specific substrate, Caliper LC-3000). Particulars: SYK kinase domain (residues 356-635); 5FAM-KKKKEEIYFFFG-NH2 substrate, ATP, 60 min at RT; pIC50 = -log(IC50), IC50 molar. The class given is biochemical.
Experimental: SYK protein is prepared from cDNA encoding human spleen tyrosine kinase and is expressed in insect cells using a baculovirus expression vector. […] The recombinant bacmid DNA is isolated and transfected into Sf9 insect cells. Recombinant virus is harvested 72 h after transfection. High titer viral stock is prepared by infecting Sf9 cells at a multiplicity of infection (MOI) of approximately 0.01. A suspension of Sf9 cells (10 L) is infected with recombinant virus (MOI=5) and is incubated in a Wave Bioreactor (GE-Healthcare) for 48 h. The cells are harvested and stored at −80° C.
To purify the expressed protein, the frozen Sf9 cells (10 L) are broken into small (<1 cm) particles and suspended in a lysis buffer (300 mL) containing 20 mM Tris (pH 7.6), 0.25 mM TCEP, 100 mM NaCl, 5% glycerol and a protease inhibitor. The suspension is stirred at RT until completely thawed, lysed an additional 2-4 min on a rotary blade homogenizer, and then centrifuged at 4200 g for 1 h. Following centrifugation, the supernatant is poured through cheese cloth and combined with a nickel chelating resin (Probond Resin™, Invitrogen) which is pre-equilibrated in a wash buffer containing 10 mM Tris (pH 7.6), 0.25 mM TCEP, 300 mM NaCl, 5% glycerol, and 20 mM imidazole. The mixture is agitated for 3 h in a cold room and then centrifuged at 900 g for 10 min. The resin is dispersed in wash buffer (50 mL), centrifuged for 10 min at 900 g, re-dispersed in a small amount of wash buffer (5 mL), and then pour into a disposable Poly-Prep chromatography column, through which wash buffer is passed by gravity until no protein is observed in coomassie buffer (about 120 mL of wash buffer). An elution buffer (30 mL) containing 10 mM HEPES (pH 7.4), 150 mM NaCl, 10% glycerol, 5 mM DTT, and 400 mM imidazole is used to elute the SYK protein from the resin. The eluate is concentrated (5 mL) and further purified on a Superdex 200 column (1.2 mL/min for 160 min, 10 mM HEPES (pH 7.4), 10 mM NaCl, 10 mM MgCl, 0.1 mM EDTA, and 0.25 mM TCEP). The chromatographed fractions are run on SDS-PAGE and the requisite fractions are pooled and concentrated. Final delivery buffer is 10 mM HEPES (pH 7.4), 10 mM Methione, 150 mM NaCl, 10% glycerol, 5 mM DTT.
SYK inhibition is determined using a black 384 well plate format in buffer containing 50 mM HEPES, 10 mM NaCl, 10 mM MgCl2, 0.2 mM EDTA, 0.01% EDA (Brij® 35), 1 mM DTT, and 0.1 mg/ml BSA at pH 7.3. Each test compound is prepared in DMSO using 2-fold serial dilutions for 11 data points, which are added to the buffer so that each dilution contains 3% DMSO. […] The reaction mixture is incubated at RT for 60 min, and quenched by adding 50 mM Hepes, 30 mM EDTA, 0.1% Triton X-100 (pH 7.3). To quantify the fluorescent-labeled substrate and product following reaction, the test plate is loaded on a Caliper LC-3000, which measures percent of conversion by microfluidic-based separation. Corresponding IC50 values are calculated by non-linear curve fitting of the compound concentrations and percent of inhibition to the standard IC50 equation and reported as pIC50, i.e., −log(IC50), where IC50 is molar concentration.
On to `Cc1cccc(Nc2nc(N[C@@H]3CCCC[C@@H]3O)nc3c2C(=O)NC3)c1` (relative stereo) [Example 11, cis-2-(2-Hydroxycyclohexylamino)-4-(m-tolylamino)-6,7-dihydro-5H-pyrrolo[3,4-d]pyrimidin-5-one], for which the “SYK Inhibition (pIC50)” value worked out at 5.9.

As for `Cc1cccc(Nc2nc(N[C@@H]3COC[C@@H]3N)cc3c2C(=O)NC3)c1` (relative stereo) [Example 58, 6-(cis-4-Aminotetrahydrofuran-3-ylamino)-4-(m-tolylamino)-1H-pyrrolo[3,4-c]pyridin-3(2H)-one], the “SYK Inhibition (pIC50)” value is recorded as 5.8. As for `Cn1cc(-c2nc(N[C@@H]3CC(F)(F)C[C@@H]3N)c(F)c3c2C(=O)NC3)cn1` (relative stereo) [Example 66, 6-(cis-2-Amino-4,4-difluorocyclopentylamino)-7-fluoro-4-(1-methyl-1H-pyrazol-4-yl)-1H-pyrrolo[3,4-c]pyridin-3(2H)-one], the “SYK Inhibition (pIC50)” value came out at 6.3.

For the compound `Cn1cc(-c2nc(N[C@@H]3CCCC(F)(F)[C@@H]3N)c(F)c3c2C(=O)NC3)cn1` (relative stereo) [Example 67, 6-(cis-2-Amino-3,3-difluorocyclohexylamino)-7-fluoro-4-(1-methyl-1H-pyrazol-4-yl)-1H-pyrrolo[3,4-c]pyridin-3(2H)-one], the “SYK Inhibition (pIC50)” value turned out to be 7.4.

As to `N[C@@H]1[C@H](Nc2nc(-c3cnn(C(F)F)c3)c3c(c2F)CNC3=O)CCCC1(F)F` (relative stereo) [Example 68, 6-(cis-2-Amino-3,3-difluorocyclohexylamino)-4-(1-(difluoromethyl)-1H-pyrazol-4-yl)-7-fluoro-1H-pyrrolo[3,4-c]pyridin-3(2H)-one], the “SYK Inhibition (pIC50)” value was found to be 7.0.

`N[C@@H]1[C@H](Nc2nc(-c3cnn(C4CC4)c3)c3c(c2F)CNC3=O)CCCC1(F)F` (relative stereo) [Example 69, 6-(cis-2-amino-3,3-difluorocyclohexylamino)-4-(1-cyclopropyl-1H-pyrazol-4-yl)-7-fluoro-1H-pyrrolo[3,4-c]pyridin-3(2H)-one]: the “SYK Inhibition (pIC50)” value is reported as 6.8. Take `Cc1cccc(Nc2nc(N[C@H]3COCC[C@H]3N)cc3c2C(=O)NC3)c1` [Example 86, 6-((3R,4R)-4-Aminotetrahydro-2H-pyran-3-ylamino)-4-(m-tolylamino)-1H-pyrrolo[3,4-c]pyridin-3(2H)-one]: the “SYK Inhibition (pIC50)” value was 5.6.
